Data: ChEMBL document CHEMBL4371035, “Design, synthesis and biological evaluation of bifunctional inhibitors of membrane type 1 matrix metalloproteinase (MT1-MMP)” (Bioorg Med Chem, 2019)
The source made the active and inactive calls. The rule behind the calls is not given here.

Legend:
[1] = biological target: 72 kDa type IV collagenase (Homo sapiens, UniProt P08253); test: Inhibition of recombinant human proMMP2 using Mca-Lys-Pro-Leu-Gly-Leu-Dap(Dnp)-Ala-Arg-NH2 as substrate preincubated for 3 hrs followed by substrate addition and measured every 10 secs for 15 mins in presence of APMA by fluorometric assay
Chain of 72 kDa type IV collagenase (P08253 whole entry): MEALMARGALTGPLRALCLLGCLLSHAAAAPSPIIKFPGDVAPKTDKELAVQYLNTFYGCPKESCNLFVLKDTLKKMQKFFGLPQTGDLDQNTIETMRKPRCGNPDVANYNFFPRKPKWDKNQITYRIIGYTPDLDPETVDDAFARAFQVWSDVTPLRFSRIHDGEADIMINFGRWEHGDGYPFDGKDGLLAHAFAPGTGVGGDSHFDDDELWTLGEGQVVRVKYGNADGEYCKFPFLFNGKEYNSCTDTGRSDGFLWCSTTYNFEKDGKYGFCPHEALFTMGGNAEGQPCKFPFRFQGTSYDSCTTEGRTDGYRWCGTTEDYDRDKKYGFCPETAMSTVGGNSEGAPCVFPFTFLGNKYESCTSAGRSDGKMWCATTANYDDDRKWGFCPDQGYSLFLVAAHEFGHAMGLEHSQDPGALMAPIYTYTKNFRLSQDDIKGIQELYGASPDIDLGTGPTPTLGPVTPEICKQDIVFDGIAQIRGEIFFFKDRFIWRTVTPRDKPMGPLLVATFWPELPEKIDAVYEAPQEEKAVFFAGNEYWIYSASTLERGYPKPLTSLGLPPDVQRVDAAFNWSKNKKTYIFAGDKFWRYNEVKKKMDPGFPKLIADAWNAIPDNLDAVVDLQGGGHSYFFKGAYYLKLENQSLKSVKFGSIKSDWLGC

[2] = biological target: Matrix metalloproteinase-9 (Homo sapiens, UniProt P14780); test: Inhibition of recombinant human proMMP9 using Mca-Lys-Pro-Leu-Gly-Leu-Dap(Dnp)-Ala-Arg-NH2 as substrate preincubated for 3 hrs followed by substrate addition and measured every 10 secs for 15 mins in presence of APMA by fluorometric assay
Chain of Matrix metalloproteinase-9 (P14780 whole entry): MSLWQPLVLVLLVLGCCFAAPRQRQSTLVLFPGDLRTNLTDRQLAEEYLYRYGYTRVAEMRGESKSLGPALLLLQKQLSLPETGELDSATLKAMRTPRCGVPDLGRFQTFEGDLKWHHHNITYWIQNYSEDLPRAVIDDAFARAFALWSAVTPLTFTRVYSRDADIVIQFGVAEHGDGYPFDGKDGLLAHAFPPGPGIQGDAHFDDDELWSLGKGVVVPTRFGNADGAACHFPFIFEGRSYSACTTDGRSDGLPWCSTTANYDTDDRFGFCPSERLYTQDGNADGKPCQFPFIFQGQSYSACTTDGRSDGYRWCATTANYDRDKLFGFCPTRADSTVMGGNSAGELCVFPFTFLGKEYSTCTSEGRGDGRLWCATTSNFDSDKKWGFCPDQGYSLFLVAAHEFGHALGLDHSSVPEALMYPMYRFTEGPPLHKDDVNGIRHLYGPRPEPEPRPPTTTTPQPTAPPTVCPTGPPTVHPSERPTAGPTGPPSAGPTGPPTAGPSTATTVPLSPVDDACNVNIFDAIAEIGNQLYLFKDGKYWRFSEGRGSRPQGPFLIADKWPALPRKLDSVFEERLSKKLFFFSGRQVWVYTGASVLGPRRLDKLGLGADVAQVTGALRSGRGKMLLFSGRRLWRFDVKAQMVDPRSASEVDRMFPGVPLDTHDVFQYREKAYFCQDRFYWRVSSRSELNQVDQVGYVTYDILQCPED

[3] = biological target: T1, Interstitial collagenase (Homo sapiens, UniProt P03956); test: Inhibition of recombinant human pro-MMP1 using Mca-Lys-Pro-Leu-Gly-Leu-Dap(Dnp)-Ala-Arg-NH2 as substrate preincubated for 3 hrs followed by substrate addition and measured every 10 secs for 15 mins in presence of APMA by fluorometric assay
T1 sequence (P03956 whole entry): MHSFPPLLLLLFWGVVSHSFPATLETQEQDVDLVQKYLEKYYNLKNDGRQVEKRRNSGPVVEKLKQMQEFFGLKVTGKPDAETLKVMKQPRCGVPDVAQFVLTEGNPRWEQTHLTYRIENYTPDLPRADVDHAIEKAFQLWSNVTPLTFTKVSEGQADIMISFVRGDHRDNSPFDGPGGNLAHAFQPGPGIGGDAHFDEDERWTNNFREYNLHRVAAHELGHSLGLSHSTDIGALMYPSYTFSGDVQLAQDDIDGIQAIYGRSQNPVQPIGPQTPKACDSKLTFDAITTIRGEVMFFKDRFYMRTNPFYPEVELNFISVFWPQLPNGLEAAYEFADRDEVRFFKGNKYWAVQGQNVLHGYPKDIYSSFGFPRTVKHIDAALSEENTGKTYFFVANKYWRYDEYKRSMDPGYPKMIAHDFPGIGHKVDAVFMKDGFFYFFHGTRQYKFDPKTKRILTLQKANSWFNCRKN

[4] = biological target: T2, Matrix metalloproteinase-14 (Homo sapiens, UniProt P50281); test: Inhibition of recombinant human MT1-MMP catalytic domain using Mca-Lys-Pro-Leu-Gly-Leu-Dap(Dnp)-Ala-Arg-NH2 as substrate preincubated for 3 hrs followed by substrate addition and measured every 10 secs for 15 min by fluorometric assay
[5] = biological target: T2, Matrix metalloproteinase-14; test: Inhibition of MT1-MMP-mediated collagen invasion in human HT1080 cells attached to gelatin-coated Cytodex 3 microcarrier beads assessed as cell migration out from the bead surface into collagen matrix at 1 to 10 uM and measured after overnight incubation by microcarriers beads invasion assay; format: cell-based
[6] = biological target: T2, Matrix metalloproteinase-14; conditions: 10 uM
Description: Inhibition of MT1-MMP-mediated proMMP-2 activation in human HT1080 cells stimulated with type I collagen for 24 hrs followed by compound addition at 10 uM and measured after 24 hrs by gelatin zymography assay

[7] = biological target: T2, Matrix metalloproteinase-14; conditions: 0.01 to 10 uM
Description: Inhibition of MT1-MMP-mediated proMMP-2 activation in human HT1080 cells stimulated with type I collagen for 24 hrs followed by compound addition assessed as reduction in processed form of MT1-MMP (40 KDa) level at 0.01 to 10 uM and measured after 24 hrs by Western blot analysis

[8] = biological target: T2, Matrix metalloproteinase-14; test: Inhibition of MT1-MMP mediated collagenolytic activity in human HT1080 cells stimulated with type I collagen for 48 hrs followed by compound addition at 1 to 10 uM and measured after 48 hrs by Coomassie Blue staining-based collagen film degradation assay; format: cell-based
[9] = tested on: HT-1080; test: Cytotoxicity against human HT1080 cells at 10 to 50 uM after 4 hrs by MTS assay; format: cell-based; conditions: ht-1080, 4 h
[10] = biological target: T2, Matrix metalloproteinase-14; test: Inhibition of MT1-MMP-mediated proMMP-2 activation in human HT1080 cells stimulated with type I collagen for 24 hrs followed by compound addition assessed as increase in proMT1-MMP (65 KDa) level at 0.01 to 10 uM and measured after 24 hrs by Western blot analysis; format: cell-based
[11] = biological target: T2, Matrix metalloproteinase-14; conditions: 0.01 to 10 uM; remark: listed apart in the source
Description: Inhibition of MT1-MMP-mediated proMMP-2 activation in human HT1080 cells stimulated with type I collagen for 24 hrs followed by compound addition assessed as increase in active MT1-MMP (55 KDa) level at 0.01 to 10 uM and measured after 24 hrs by Western blot analysis

[12] = biological target: T2, Matrix metalloproteinase-14; conditions: 0.01 uM
Description: Inhibition of MT1-MMP-mediated proMMP-2 activation in human HT1080 cells stimulated with type I collagen for 24 hrs followed by compound addition at 0.01 uM and measured after 24 hrs by gelatin zymography assay

[13] = biological target: T2, Matrix metalloproteinase-14; conditions: 0.1 to 10 uM
Description: Inhibition of MT1-MMP-mediated proMMP-2 activation in human HT1080 cells stimulated with type I collagen for 24 hrs followed by compound addition at 0.1 to 10 uM and measured after 24 hrs by gelatin zymography assay

[14] = biological target: T2, Matrix metalloproteinase-14; conditions: 10 uM; remark: listed apart in the source
Description: Inhibition of MT1-MMP mediated collagenolytic activity in human HT1080 cells stimulated with type I collagen for 48 hrs followed by compound addition at 10 uM and measured after 48 hrs by Coomassie Blue staining-based collagen film degradation assay

[15] = biological target: T2, Matrix metalloproteinase-14; conditions: 1 to 10 uM
Description: Inhibition of MT1-MMP-mediated proMMP-2 activation in human HT1080 cells stimulated with type I collagen for 24 hrs followed by compound addition assessed as reduction in processed form of MT1-MMP (40 KDa) level at 1 to 10 uM and measured after 24 hrs by Western blot analysis

[16] = biological target: T2, Matrix metalloproteinase-14; test: Inhibition of MT1-MMP-mediated proMMP-2 activation in human HT1080 cells stimulated with type I collagen for 24 hrs followed by compound addition assessed as increase in active MT1-MMP (55 KDa) level at 1 to 10 uM and measured after 24 hrs by Western blot analysis; format: cell-based
[17] = biological target: T2, Matrix metalloproteinase-14; test: Inhibition of MT1-MMP-mediated proMMP-2 activation in human HT1080 cells stimulated with type I collagen for 24 hrs followed by compound addition assessed as increase in proMT1-MMP (65 KDa) level at 1 to 10 uM and measured after 24 hrs by Western blot analysis; format: cell-based
[18] = biological target: T2, Matrix metalloproteinase-14; test: Inhibition of MT1-MMP-mediated proMMP-2 activation in human HT1080 cells stimulated with type I collagen for 24 hrs followed by compound addition at 1 to 10 uM and measured after 24 hrs by gelatin zymography assay; format: cell-based
[19] = biological target: T2, Matrix metalloproteinase-14; test: Inhibition of MT1-MMP-mediated proMMP-2 activation in human HT1080 cells stimulated with type I collagen for 24 hrs followed by compound addition at <0.1 uM and measured after 24 hrs by gelatin zymography assay; format: cell-based
[20] = Aqueous solubility of the compound; format: physicochemical; conditions: water (aqueous)

| Structure (SMILES) | IC50 [1] [nM] | IC50 [2] [nM] | IC50 [3] [nM] | IC50 [4] [nM] | inhibition [5] | inhibition [8] | inhibition [16] | inhibition [17] | Activity [9] | other results |
| --- | --- | --- | --- | --- | --- | --- | --- | --- | --- | --- |
| O=C(NCC[C@@H](NS(=O)(=O)c1ccc(-c2ccccc2)cc1)C(=O)NO)c1cccc(C(=O)NCC[C@@H](NS(=O)(=O)c2ccc(-c3ccccc3)cc2)C(=O)NO)c1 | 1.2 | 1.25 | 870 | 80 |  |  |  |  |  |  |
| COc1ccc(-c2ccc(S(=O)(=O)N(CCNC(=O)CCCNC(=O)c3cccc(C(=O)NCCCC(=O)NCCN([C@H](CCN4C(=O)c5ccccc5C4=O)C(=O)NO)S(=O)(=O)c4ccc(-c5ccc(OC)cc5)cc4)c3)[C@H](CCN3C(=O)c4ccccc4C3=O)C(=O)NO)cc2)cc1 | 4.1 | 2.1 | 45 | 7 |  |  |  |  |  |  |
| COc1ccc(-c2ccc(S(=O)(=O)N(CCNC(=O)c3cccc(C(=O)NCCN([C@H](CCN4C(=O)c5ccccc5C4=O)C(=O)NO)S(=O)(=O)c4ccc(-c5ccc(OC)cc5)cc4)c3)[C@H](CCN3C(=O)c4ccccc4C3=O)C(=O)NO)cc2)cc1 | 13 | 14 | 150 | 14 | Active | Active | Dose-dependent effect | Dose-dependent effect | Non-Toxic | inhibition [18]: Active; inhibition [19]: inactive; solubility [20]: > 1000 µM |

Continued, in another order:

| IC50 [1] [nM] | IC50 [2] [nM] | IC50 [3] [nM] | IC50 [4] [nM] | inhibition [5] | inhibition [8] | inhibition [16] | inhibition [17] | Structure (SMILES) | Activity [9] | other results |
| --- | --- | --- | --- | --- | --- | --- | --- | --- | --- | --- |
| 1.6 | 8.7 | 155 | 41 |  |  |  |  | O=C(CCCNC(=O)c1cccc(C(=O)NCCCC(=O)NCC[C@@H](NS(=O)(=O)c2ccc(-c3ccccc3)cc2)C(=O)NO)c1)NCC[C@@H](NS(=O)(=O)c1ccc(-c2ccccc2)cc1)C(=O)NO |  |  |
|  |  | 170 |  | Active | Active |  |  | COc1ccc(-c2ccc(S(=O)(=O)N(OC(C)C)[C@H](CCN3C(=O)c4ccccc4C3=O)C(=O)NO)cc2)cc1 | Toxic | inhibition [6]: Active; inhibition [7]: inactive; inhibition [10]: inactive; inhibition [11]: inactive |
|  |  |  |  |  |  | Active | Active | CNC(=O)[C@H](Cc1c[nH]c2ccccc12)NC(=O)[C@@H](CC(=O)NO)CC(C)C |  | inhibition [12]: inactive; inhibition [13]: Active; inhibition [14]: 100%; inhibition [15]: Active |
